The nature of the data set: Water solubility / dissolving of monomer and polymer (other in-vitro-experiments). It is filed as physicochemical. The text has this: However, dissolving polymer, once it had been dried, takes considerably longer (some hours) than dissolving dry monomer (some seconds). […] All the 20 hair fibres of each sample without H2O2 pre-treatment lost their radioactivity of the cuticle area by washing, whereas all the other samples kept it.

SMILES strings stand for the structures.

Turning to `C=CC(=O)OCCCS(=O)(=O)O` [3-SPA, 3-sulfopropylacrylate], the water solubility result is recorded as “water soluble”. Moreover, where the note is “dry / once dried material”, the “time for dissolving in water” value is “some seconds”.

These data come from patent US20120180807A1, “Method for Chemically Modifying the Internal Region of a Hair Shaft” (priority 2011, published 2012).
